Results reported in patent US20090042848A1, “COPPER COMPLEXES” (priority 2005, published 2009).
“Also recorded” adds a separate entry of the source.

Experiments:
stomach = assay: Acute macroscopic gastric damage after oral dosing; format: in vivo, Sprague-Dawley rats; settings: for Gastric Ulceration / macroscopic gastric ulcerations (in words, FIG. 8(1)): oral; for macroscopic gastric ulcerations (in words, FIG. 8(1)): IndoH 10 mg/kg or equimolar Indo dose in 2% (w/v) CMC solution
Experimental: Rats were fasted with access to water for 24 h prior to dosing and 3 hours post dosing. Three hours after administration of the test compound, the rats were euthanased and the stomach was excised and opened by incision along the greater curvature.
After the aforementioned anti-inflammatory activity experiments, the rats were immediately euthanased. Similarly, the stomach was excised and opened by incision along the greater curvature for the examination of the macroscopic ulcerations (mm^2).
Since there were no significant differences in the results obtained by the two methods, the results shown in FIG. 8(1) are those of the two methods combined.

small intestine = settings: oral
[1] = system: carrageenan-induced paw edema; assay: Inhibition of carrageenan-induced paw edema (rat paw oedema assay); format: in vivo, Sprague-Dawley rats; settings: oral
[2] = oral administration; cited from earlier work
[3] = 10 mg/kg of Indo dispersed in MCT paste
[4] = 1 mg/kg of Indo dispersed in MCT paste
[5] = 2 mg/kg of Indo dispersed in MCT paste

Molecule | Gastric Ulceration (stomach; [3]) | Inhibition % [1, 3] | macroscopic gastric ulcerations (in words, FIG. 8(1)) (stomach) | Inhibition % [1, 4] | Inhibition % [1, 5] | Inhibition % ([1]; 2 mg/kg of Indo in 2% CMC) | other results
COc1ccc2c(c1)c(CC(=O)O)c(C)n2C(=O)c1ccc(Cl)cc1 [IndoH, Indomethacin, reference compound] | 115 ± 30 mm^2 | 54 ± 12% | – | – | – | – | Small Intestine Ulceration (mm^2) (small intestine; [3]): 80 ± 7 mm^2
CN(C)C=O.CN(C)C=O.COc1ccc2c(c1)c(CC(=O)[O-])c(C)n2C(=O)c1ccc(Cl)cc1.COc1ccc2c(c1)c(CC(=O)[O-])c(C)n2C(=O)c1ccc(Cl)cc1.COc1ccc2c(c1)c(CC(=O)[O-])c(C)n2C(=O)c1ccc(Cl)cc1.COc1ccc2c(c1)c(CC(=O)[O-])c(C)n2C(=O)c1ccc(Cl)cc1.[Cu+2].[Cu+2] [[Cu2(Indo)4(DMF)2], bis(N,N-dimethylformamide)tetrakis-μ-(O,O′-Indo)dicopper(II) complex] | – | – | significant reductions (P<0.01) in gastric ulcerations as compared to those induced by IndoH | – | – | – | gastrointestinal toxicity compared with indomethacin (in words) [2]: less gastrointestinal toxicity than indomethacin; small intestinal toxicity / ulceration (in words, FIG. 8(2)) (small intestine; equimolar Indo dose (10 mg/kg IndoH) in 2% (w/v) CMC solution, 24 h after dosing): low small intestinal toxicity
Bis(η^1-O-Indo)tris(pyridine)copper(II) [[Cu(Indo)2(Py)3], reference compound] | – | – | no significant difference in the gastric ulcerations induced by [Cu(Indo)2(Py)3] or IndoH | – | – | – | efficacy in reducing inflammation (in words, FIG. 9) ([1]; equimolar Indo dose (10 mg/kg IndoH) in 2% (w/v) CMC solution): as effective as [Cu2(Indo)4(DMF)2] in reducing inflammation
Bis(η^2-O,O′-Indo)bis(pyrrolidine)copper(II)-2-pyrrolidine monohydrate [[Cu(Indo)2(Pyrro)2]] | – | – | – | – | – | – | macroscopic gastric ulcerations (in words, FIG. 8(1)) (stomach; monohydrate): significant reductions (P<0.01) in gastric ulcerations as compared to those induced by IndoH; also recorded: significant reduction in gastric ulceration compared with [Cu2(Indo)4(DMF)2]; average gastric ulceration (stomach; second experiment, different sample precipitated from solution with diethyl ether, four rats, same dose of Indo): 21 mm^2
bis(η^2-O,O′-Indo)bis(4-picoline)copper(II) [[Cu(Indo)2(4-pic)2]] | – | 57 ± 19% | – | 28% | 54% | 16% | –
bis(η^2-O,O′-Indo)bis(imidazole)copper(II) [[Cu(Im)2(Indo)2]] | 55 ± 42 mm^2 | 45 ± 16% | – | 31% | 39% | 11% | Gastric Ulceration (stomach; [4]): 2 ± 2 mm^2; Gastric Ulceration (stomach; [5]): 3 ± 42 mm^2; Gastric Ulceration (stomach; 2 mg/kg of Indo in 2% CMC): 3 ± 3 mm^2
